Read-outs that look alike come from different tables or passages of the source.
How the values were obtained:
[1] = Pharmacokinetics studies of AZT 100 mg every 6 hours before the study; assay type: in vivo, AIDS patients; details: 100 mg AZT every 6 hours (400 mg total daily dose)
[2] = system: HIV (Human Immunodeficiency Virus); details: cited from earlier work
[3] = Clinical Study 1: plasma/serum AZT by radioimmunoassay, AZT alone then AZT + inosiplex; assay type: in vivo, AIDS patients; details: for Cmax: plasma, mean peak plasma level of AZT; for concentration: read-out: mean nadir level of AZT
Experimental: (§1) The patients were then placed on the following dosing regimen:
(§2) No other drugs that are believed to affect hepatic glucuronidation were administered.

[4] = Clinical Study No. 2: plasma/serum AZT by radioimmunoassay, AZT alone then AZT + p-acetamidobenzoic acid; assay type: in vivo, AIDS patients; details: for Cmax: human, plasma, po, 100 mg, mean peak plasma level of AZT; for concentration: read-out: mean nadir level of AZT
Experimental: as §1, §2

[5] = Clinical Study 3: plasma/serum AZT by radioimmunoassay, AZT alone then AZT + inosine + INPX; assay type: in vivo, AIDS patients; details: for Cmax: human, plasma, po, 100 mg, mean peak plasma level of AZT; for concentration: read-out: mean nadir level of AZT
Experimental: as §1, §2

bone marrow = assay: Bone marrow toxicity of AZT in the study patients before the study; assay type: in vivo, AIDS patients; details: 200 mg AZT orally every four hours (1,200 mg daily), and again on 800 mg daily for 2 months; 5 patients
[6] = cited from earlier work
HIV = details: cited from earlier work
[7] = system: RNA-dependent DNA-polymerase (viral reverse transcriptase); details: in vitro incorporation into DNA growing chains, DNA chain terminated; cited from earlier work
[8] = with zidovudine, GB 2 181 128 A

Compound: Cc1cn([C@H]2C[C@H](N=[N+]=[N-])[C@@H](CO)O2)c(=O)[nH]c1=O [AZT, 3'-azido-3'-deoxythymidine]
- plasma levels [1]: below the therapeutical threshold
- inhibition of in vitro replication of some retroviruses, including HIV [2]: inhibitor of the in vitro replication of some retroviruses, including HIV
- AZT serum level at time 0 ([3]; before the taking of AZT alone or of AZT and INPX): 0.013 µM
- Cmax ([3]; human, po, 100 mg, 100 mg AZT with 1 gm INPX every 6 hrs, day 14, standard deviation 1.5 μM, range 0.14 to 4.4 μM): 2250 nM
- Cmax ([3]; human, po, 100 mg, AZT alone 100 mg oral every 6 hours, day 7, standard deviation 0.75 μM, range 0.06 to 2.52 μM): 1470 nM
- half-life ([3]; human, serum, po, 100 mg, read-out: Serum half-life of the elimination phase (T1/2)): 44 min
- concentration ([3]; 100 mg AZT with 1 gm INPX every 6 hrs, day 14, standard deviation 0.25 μM, range 0.15 to 0.84 μM): 460 nM
- concentration ([3]; AZT alone 100 mg oral every 6 hours, day 7, standard deviation 0.19 μM, range 0.06 to 0.5 μM): 240 nM
- serum level at time 0 ([4]; before the taking of AZT alone or of AZT and p-acetamidobenzoic acid): 10 nM
- Cmax ([4]; 100 mg AZT with 1 gm p-acetamidobenzoic acid every 6 hrs, day 14, standard deviation 1.8 μM, range 0.16 to 4.7 μM): 2450 nM
- Cmax ([4]; AZT alone 100 mg oral every 6 hours, day 7, standard deviation 0.75 μM, range 0.04 to 2.46 μM): 1520 nM
- concentration ([4]; 100 mg AZT with 1 gm p-acetamidobenzoic acid every 6 hrs, day 14, standard deviation 0.28 μM, range 0.14 to 0.88 μM): 490 nM
- concentration ([4]; AZT alone 100 mg oral every 6 hours, day 7, standard deviation 0.19 μM, range 0.04 to 0.6 μM): 250 nM
- AZT serum level at time 0 ([5]; before the taking of AZT alone or of AZT, inosine and INPX): 0.016 µM
- Cmax ([5]; 100 mg AZT with 1 gm inosine and 1 gm INPX every 6 hrs, day 14, standard deviation 1.3 μM, range 0.15 to 4.2 μM): 2760 nM
- Cmax ([5]; AZT alone 100 mg oral every 6 hours, day 7, standard deviation 0.70 μM, range 0.03 to 2.16 μM): 1410 nM
- concentration ([5]; 100 mg AZT with 1 gm inosine and 1 gm INPX every 6 hrs, day 14, standard deviation 0.26 μM, range 0.11 to 0.82 μM): 510 nM
- concentration ([5]; AZT alone 100 mg oral every 6 hours, day 7, standard deviation 0.16 μM, range 0.06 to 0.8 μM): 210 nM
- bone marrow toxicity (bone marrow): developped bone marrow toxicity
- half-life ([6]; average): about 1 hour
- metabolic inactivation ([6]; liver): rapidly inactivated via glucuronidation in the liver

Compound: Nc1nc2c(ncn2COCCO)c(=O)[nH]1 [acyclovir]
- effect on zidovudine (HIV; [8]): synergistic effect

Compound: COc1cc(C(=O)OCCCN2CCCN(CCCOC(=O)c3cc(OC)c(OC)c(OC)c3)CC2)cc(OC)c1OC [dilazep]
- effect on zidovudine (HIV; [8]): synergistic effect

Compound: OCCN(CCO)c1nc(N2CCCCC2)c2nc(N(CCO)CCO)nc(N3CCCCC3)c2n1 [dipyridamole]
- effect on zidovudine (HIV; [8]): synergistic effect

Compound: O=C(O)P(=O)(O)O [foscarnet]
- effect on zidovudine (HIV; [8]): synergistic effect

Compound: COc1cc(C(=O)OCCCN(C)CCN(C)CCCOC(=O)c2cc(OC)c(OC)c(OC)c2)cc(OC)c1OC [hexobendine]
- effect on zidovudine (HIV; [8]): synergistic effect

Compound: c1ccc([C@H]2CN3CCSC3=N2)cc1 [levamisole]
- effect on zidovudine (HIV): synergistic effect

Compound: Cc1cccc(C)c1NC(=O)CN1CCN(CCCC(c2ccc(F)cc2)c2ccc(F)cc2)CC1 [lidoflazine]
- effect on zidovudine (HIV; [8]): synergistic effect

Compound: NC(=O)C1CN(CC(=O)Nc2c(Cl)cccc2Cl)CCN1CCCC(c1ccc(F)cc1)c1ccc(F)cc1 (centres unmarked) [mioflazine]
- effect on zidovudine (HIV; [8]): synergistic effect

Compound: COc1ccc(Cc2nccc3cc(OC)c(OC)cc23)cc1OC [papaverine]
- effect on zidovudine (HIV; [8]): synergistic effect

Compound: CCCN(CCC)S(=O)(=O)c1ccc(C(=O)O)cc1 [probenecid]
- effect on zidovudine (HIV; [8]): synergistic effect

Compound: Cc1ccc(C(=O)Nc2ccc(S(=O)(=O)O)c3cc(S(=O)(=O)O)cc(S(=O)(=O)O)c23)cc1NC(=O)c1cccc(NC(=O)Nc2cccc(C(=O)Nc3cc(C(=O)Nc4ccc(S(=O)(=O)O)c5cc(S(=O)(=O)O)cc(S(=O)(=O)O)c45)ccc3C)c2)c1 [suramine]
- effect on zidovudine (HIV; [8]): synergistic effect

Compound: Cc1cn([C@H]2C[C@H](N=[N+]=[N-])[C@@H](CO[P@](=O)(O)O[P@](=O)(O)OP(=O)(O)O)O2)c(=O)[nH]c1=O [zidovudine triphosphate]
- effect on RNA-dependent DNA-polymerase (viral reverse transcriptase) [7]: incorporated into the DNA growing chains by viral reverse transcriptase, whereby DNA chain is terminated

Compound: alpha-interferon
- effect on zidovudine (HIV; [8]): synergistic effect

Compound: gamma-interferon: alpha-, beta, and gamma-interferons
- effect on zidovudine (HIV; [8]): synergistic effect
